Laboratory results as given in PMC9599613 (Biomolecules, 2022).

What was measured:
[1] = ABTS free radical scavenging assay
Experimental: The antioxidant potentials of isolated phytosteroids 1 and 2 were also determined using the ABTS (2,2′-azino-bis(3-ethylbenzothiazoline-6-sulfonic acid)) standard method. […] This created free radicals within the sample. Afterward, the addition of 50% methanol and the ABTS radical cation solution were adjusted to pH 7.4 by dilution with the phosphate buffer (pH 7.4). […] The positive control was ascorbic acid, and the assay was repeated in triplicate. The percent radical scavenging potential of the test compounds was calculated using the standard reported formula.

[2] = DPPH free radical scavenging assay
Experimental: The antioxidant potentials of isolated compounds (phytosteroids 1 and 2) were determined following the DPPH standard assay. Initially, DPPH (24 mg) was dissolved in methanol (100 mL). Stock solutions of the test compounds were prepared in different dilutions (62.50–1000 μg/mL). From each dilution, 1 mL was mixed with 1 mL of the DPPH solution. The solution mixtures were incubated at room temperature for 0.5 h. Afterward, absorbance was recorded at 517 nm with a UV-visible spectrophotometer. Ascorbic acid was the standard drug, whereas the DPPH solution without the compound was negative control. The percent radical scavenging potential of the test compounds was calculated using the following formula: % DPPH activity=X−X1/X×100 where X = absorbance of the control, and X1 = absorbance of the test compound.

human recombinant 5-LOX = molecular target: T1, human recombinant 5-LOX (Homo sapiens, UniProt P09917); assay: biochemical
T1 sequence (P09917 1-674): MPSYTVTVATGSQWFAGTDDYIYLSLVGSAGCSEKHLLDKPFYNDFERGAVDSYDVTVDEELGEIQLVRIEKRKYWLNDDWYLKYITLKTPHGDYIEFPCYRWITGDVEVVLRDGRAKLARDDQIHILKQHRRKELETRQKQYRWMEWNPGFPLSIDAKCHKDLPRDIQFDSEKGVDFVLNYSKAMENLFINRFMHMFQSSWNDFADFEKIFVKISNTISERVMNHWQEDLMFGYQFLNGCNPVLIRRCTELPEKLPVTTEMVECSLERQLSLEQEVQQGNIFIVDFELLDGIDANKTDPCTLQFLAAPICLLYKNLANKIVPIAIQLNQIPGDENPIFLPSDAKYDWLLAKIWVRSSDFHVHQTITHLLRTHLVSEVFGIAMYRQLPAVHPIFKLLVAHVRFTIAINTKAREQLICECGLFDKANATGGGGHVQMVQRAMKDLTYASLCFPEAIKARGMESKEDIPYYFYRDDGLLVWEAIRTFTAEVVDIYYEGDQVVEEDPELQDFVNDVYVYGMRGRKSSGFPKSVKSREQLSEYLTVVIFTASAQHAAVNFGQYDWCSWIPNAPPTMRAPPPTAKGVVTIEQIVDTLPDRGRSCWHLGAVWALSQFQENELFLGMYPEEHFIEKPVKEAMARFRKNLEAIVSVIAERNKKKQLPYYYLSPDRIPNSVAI
Experimental: The lipoxygenase assay on our test compounds was performed by utilizing human recombinant 5-LOX [65]. […] The enzyme solution with a concentration of 10,000 U/mL was prepared, whereas 80 mM linoleic acid solution was used as a substrate. Solutions were prepared in a phosphate buffer (50 mM) with a pH of 6.3, which was also utilized as the blank. To start, various concentrations of our test samples were dissolved in 0.25 mL of the buffer, to which 0.25 mL enzyme solution was added and incubated at 25 °C for 5 min. Afterward, the substrate solution (0.1 mL) was added to the mixture and shaken well. […] In this assay, the standard drug was montelukast, and using the following formula, the % inhibitions were calculated: % enzyme inhibition=X−X1/X×100 where X = absorbance of the negative control (with no test sample), and X1 = absorbance of the test compound.

Row | SMILES | ABTS IC50 [1] [µg/mL] | Percent ABTS Activity (mean ± SEM) ([1]; 62.5 μg/mL) [%] | Percent ABTS Activity (mean ± SEM) ([1]; 125 μg/mL) [%] | Percent ABTS Activity (mean ± SEM) ([1]; 250 μg/mL) [%] | Percent ABTS Activity (mean ± SEM) ([1]; 500 μg/mL) [%] | Percent ABTS Activity (mean ± SEM) ([1]; 1000 μg/mL) [%] | DPPH IC50 [2] [µg/mL] | Percent DPPH Activity (mean ± SEM) ([2]; 62.5 μg/mL) [%] | Percent DPPH Activity (mean ± SEM) ([2]; 125 μg/mL) [%] | Percent DPPH Activity (mean ± SEM) ([2]; 250 μg/mL) [%] | Percent DPPH Activity (mean ± SEM) ([2]; 500 μg/mL) [%] | Percent DPPH Activity (mean ± SEM) ([2]; 1000 μg/mL) [%] | IC50 (human recombinant 5-LOX) [µM] | inhibition at 62.5 µg/mL (human recombinant 5-LOX; 62.50 μg/mL, read-out: % 5-LOX Inhibition) [%] | inhibition at 125 µg/mL (human recombinant 5-LOX; 125 μg/mL, read-out: % 5-LOX Inhibition) [%] | inhibition at 250 µg/mL (human recombinant 5-LOX; 250 μg/mL, read-out: % 5-LOX Inhibition) [%] | inhibition at 500 µg/mL (human recombinant 5-LOX; 500 μg/mL, read-out: % 5-LOX Inhibition) [%] | inhibition at 1000 µg/mL (human recombinant 5-LOX; 1000 μg/mL, read-out: % 5-LOX Inhibition) [%]
1 | O=C1O[C@H]([C@@H](O)CO)C(O)=C1O [AA, Ascorbic acid, reference compound] | 21.72 | 53.00 ± 0.57 | 62.50 ± 0.44 | 66.33 ± 0.33 | 74.66 ± 1.20 | 79.00 ± 0.16 | 11.47 | 61.30 ± 0.52 | 66.37 ± 0.58 | 72.29 ± 0.43 | 78.58 ± 0.56 | 84.39 ± 0.60 | – | – | – | – | – | –
2 | CC(C)(O)c1ccccc1CC[C@@H](SCC1(CC(=O)O)CC1)c1cccc(/C=C/c2ccc3ccc(Cl)cc3n2)c1 [Montelukast, montelukast, reference compound] | – | – | – | – | – | – | – | – | – | – | – | – | 7.68 | 74.17 ± 0.72 | 79.6 ± 0.9 | 85.5 ± 0.4 | 89.4 ± 1.65 | 93.55 ± 0.4
